Measured values published in patent US20190021323A1, “Use of Gibberellin A5 to Increase the Yield and Quality of Wine Grapes” (UTI Limited Partnership, priority 2016, published 2019).

How the values were obtained:
[1] = test system: Thompson seedless table grape vines; conditions: applied about three weeks before bloom; cited from earlier work
[2] = test system: Vitis vinifera L. cv. Malbec; assay: Field trial 2014-2015: GA5, GA4, GA4/7 bunch dip or spray on cv. Malbec grapevines (Example 3); format: in vivo
Method: (§1) A third trial was done in the same vineyard used for the trials outlined in Examples 1 and 2. Grapevines were selected from a clone of Vitis vinifera L. cv. Malbec, planted in 1997 on their own roots in a commercial vineyard located in Gualtallary, Mendoza, Argentina (1450 m above sea level, 69°15′37″ W and 33°23′51″ S). The vines were trained on a vertical trellis system arranged in north-south oriented rows spaced 2 m apart, with 1.20 m between plants within the row. The grapevines were maintained with no soil water restriction during the whole experiment by the use of a drip irrigation system (4 liters per plant per night), and the fruiting vines were protected with anti-hail nets (black polyethylene).
The effects of two concentrations (i.e., 10 mg/L and 50 mg/L) of three different gibberellin compositions (GA5, GA4, and a mixture of GA4 and GA7 referred to as “GA4/7”) on berry and bunch development and quality in treated cv. […] All of the treatment solutions, including the water controls, contained 0.1% v/v of the surfactant TRITON®-X and a minimal amount of 96% EtOH to dissolve the various GA5, GA4, and GA4/7 powders (the control treatments also included a minimal amount of 96% EtOH).
The effects of GA applications were assessed at two stages of berry development. The first group of test plants was treated at 60 DBV (i.e. 31 DAF) while a second group of test plants was treated at 30 DBV (i.e. 61 DAF). At each application stage, the groups of test plants receiving selected treatments were each divided into two subsets. The developing berry bunches on the first subset of plants for a selected treatment were treated by submerging into a 750-mL volume of the test solution for a period of 15 sec during late afternoon. The second subset of plants was treated with a spray application of 150 mL of test solution per each test plant. The spray applications were made in late afternoon.
For each of the two application stages, a randomized complete block design with 14 treatments and 5 blocks was used for a […]. The experimental unit consisted of one plant selected as being “typical” among 6 consecutive plants in a selected row. Each row was a replicate, i.e., a “block”. There were thus 40 experimental units (plants) utilized for each growth regulator. All the grapevines in the 5 replicate rows were pruned to 8 “fruiting” shoots and the crop load on each shoot was thinned to two bunches per shoot at the beginning of the experiment (31 DAF or 60 DBV). One shoot per experimental unit was selected, marked and used for the non-destructive measurements (shoot length, number of leaves and leaf area), while the rest of the shoots were used for berry sampling.
(§2) At harvest, the two selected and marked bunches from one fruiting shoot per experimental unit, i.e. not used for berry sampling, were collected in nylon bags and weighed. Then the number of berries per bunch was counted.
Samples of 25 berries per experimental unit were randomly collected in nylon bags (5 berries from each bunch; two top berries, two middle berries, one bottom berry; for each test vine, berries were collected from 5 bunches exposed to the west). These berry samples were taken at 132 DAF (132 DAF being the time of ripe berry harvest). The berries were kept on dry ice to prevent enzyme activity and dehydration and were taken quickly to the laboratory where berry fresh weights (FW) were determined before the berries were stored at −20° C. Then, 15 berries per experimental unit were defrosted at ambient room temperature after which, the skins were separated from fruit pulp and seeds by hand. The fruit pulp was collected in nylon bags, crushed by hand pressing and the relative concentration of sugars (°Brix) was measured in the pulp juice with a PAL-1 digital hand-held refractometer (Atago Co., Ltd., Tokyo, Japan). The °Brix was multiplied by the berries' FW to calculate sugar on a per berry basis (absolute amounts). […]

[3] = test system: Vitis vinifera L. cv. Malbec; assay: Field trial 2010-2011: GA5 bunch dip on cv. Malbec grapevines (Example 1); format: in vivo
Method: as §1, with “Grapevines” for “A third trial was done in the same vineyard used for the trials outlined in Examples 1 and 2. Grapevines”
The treatments were applied by submerging all of the fruit bunches on each vine in a treatment group in the selected aqueous solution (fruit bunches from control vines were submerged in water). All of the treatment solutions, including the water controls, contained 0.1% v/v of the surfactant TRITON®-X (TRITON is a registered trademark of the Dow Chemical Co., Indianapolis, Ind., USA) and a minimal amount of 95% EtOH to dissolve the GA5 powders (the control treatments also included a minimal amount of 95% EtOH). The treatments were applied three times; 56 days after flowering (DAF; i.e., 35 days before veraison—“DBV”), 70 DAF (i.e., 21 DBV), and 91 DAF (i.e., 0 DBV). The 91 DAF treatment time corresponded to veraison. Each berry bunch on a test vine was submerged in 750 mL of the selected treatment solution for 15 sec during a late afternoon time period.
A randomized complete block design with 4 treatments and 5 blocks was used during the 2010-2011 production season. The experimental unit consisted of one plant selected as being “typical” among 6 consecutive plants in a selected row. Each row was a replicate, i.e., a “block”. There were thus 5 experimental units (plants) utilized for each treatment, one for each row (block). All the grapevines in the 5 replicate rows were pruned to 8 “fruiting” shoots and the crop load on each shoot was thinned to two bunches per shoot at 40 days after flowering (DAF). One shoot per experimental unit was selected, marked and used for the non-destructive measurements (shoot length, number of leaves and leaf area), while the rest of the shoots were used for berry sampling.
(§3) Shoot length, number of leaves and midrib (main vein) length of all leaves were measured at: (i) 56 DAF/35 DBV just before application of the first set of treatments, and (ii) 132 DAF (harvest date). At the 132 DAF, all of the leaves from 10 randomly selected shoots were collected in nylon bags, kept on ice to prevent dehydration, and were taken to the laboratory where the length of the leaf midribs, weights of separated leaves, and the weights of 1-cm^2 leaf discs were determined. Then, the leaf areas (LA) were calculated and, based on the weights, a linear regression model between the LA and the midrib length was generated. The correlation coefficient (r^2) was 0.91 and thus the model was used to transform the non-destructive measurements of midrib length into LA values.
At 132 DAF, the two selected and marked bunches from one fruiting shoot per experimental unit, i.e. not used for berry sampling, were collected in nylon bags and weighed. Then the number of berries per bunch was counted.
Finally, in the next year's flowering and fruiting season (early 2012) the number of fruit clusters bunches per shoot were counted in order to assess GA5 treatment effects on return bloom.

[4] = test system: Vitis vinifera L. cv. Malbec; assay: Field trial 2012-2013: GA5 bunch dip once at 30 DBV on cv. Malbec grapevines (Example 2); format: in vivo
Method: as §1, with “second” for “third”, “trial” for “trials”, “Example 1.” for “Examples 1 and 2.”
The treatments were applied by submerging all of the fruit bunches on each vine in a treatment group in the selected aqueous solution (fruit bunches from control vines were submerged in water). All of the treatment solutions, including the water controls, contained 0.1% v/v of the surfactant TRITON®-X and a minimal amount of 95% EtOH to dissolve the GA5 powders (the control treatments also included a minimal amount of 95% EtOH). All treatments were applied once at 30 DBV (i.e. 61 DAF). Each berry bunch on a test vine was submerged in 750 mL of the selected treatment solution for 15 sec during a late afternoon time period.
A randomized complete block design with 5 treatments and 5 blocks was used during the 2012-2013 production season. The experimental unit consisted of one plant selected as being “typical” among 6 consecutive plants in a selected row. Each row was a replicate, i.e., a “block”. There were thus 5 experimental units (plants) utilized for each treatment, one for each row (block). All the grapevines in the 5 replicate rows were pruned to 8 “fruiting” shoots and the crop load on each shoot was thinned to two bunches per shoot at 40 days after flowering (DAF). One shoot per experimental unit was selected, marked and used for the non-destructive measurements (shoot length, number of leaves and leaf area), while the rest of the shoots were used for berry sampling.
as §3, with “30” for “56 DAF/35”, “at harvest.” for “132 DAF (harvest date).”, “harvest,” for “the 132 DAF,”
as §2

[5] = 10 and 50 mg/L, submersion and spraying, 60 DBV and 30 DBV, vs controls

## C=C1C[C@]23C[C@@]1(O)CC[C@H]2[C@@]12C=C[C@H](O)[C@@](C)(C(=O)O1)[C@H]2[C@@H]3C(=O)O [GA3, gibberellic acid]
[1]
  Berry cluster compactness: reduce berry cluster compactness
  Fruit set: reduce fruit set

## C=C1C[C@]23C[C@H]1CCC2[C@@]12CC[C@H](O)C(C)(C(=O)O1)C2[C@@H]3C(=O)O (stereo partly drawn) [GA4, gibberellin A4]
[2]; 8 rate/method/stage combinations, FIG. 8A
  Harvest yield (average per bunch fresh weight), significance vs controls: significantly different from the controls in 5 out of 8 rates
[2]; [5]
  Anthocyanin content per berry skin: appreciable increases
  Average per bunch fresh weight: increased
  Dry weight per individual berry: tended to be generally increased
  Number of berries per bunch: increased
  Sugar content per berry: tended to result in increased
  Total polyphenol index (TPI) per berry skin: appreciable increases

## C=C1C[C@]23C[C@@]1(O)CC[C@H]2[C@@]12CC=C[C@@](C)(C(=O)O1)[C@H]2[C@@H]3C(=O)O [GA5, gibberellin A5]
[3]; 5, 50, 250 mg/L, bunch dip at 35, 21 and 0 DBV, post-56 DAF to harvest, vs controls, FIGS. 1A-1C
  Vegetative growth of shoots (shoot length, number of leaves): not significantly affected
[3]; assessed early 2012, FIG. 2C
  Return bloom: number of fruit clusters (bunches) per shoot in the following season: no significant effects
[3]; lower GA5 application rates, dip at 56, 70 and 91 DAF, harvested at 132 DAF, FIG. 2A
  Per bunch fresh weight of grape berry bunches: significant increases
[3]; lower GA5 application rates, dip at 56, 70 and 91 DAF, harvested at 132 DAF, FIG. 2B
  Number of berries per bunch: significant increases
[3]; lower concentrations 5 mg/L, 50 mg/L, bunch dip at 35, 21 and 0 DBV, FIG. 1C
  Leaf surface area per shoot: tended to reduce
[4]; 5 mg/L, dip once at 30 DBV, FIG. 3A
  Shoot length, significance vs Control: statistically significantly different from the Control
[4]; 20 mg/L, dip once at 30 DBV, FIG. 4A
  Per bunch fresh weight: significantly increased
[4]; 20 mg/L, dip once at 30 DBV, FIG. 4B
  Number of berries per bunch: significantly increased
[4]; 20 mg/L, inferred from bunch weight
  Grape yield per plant and per hectare: appreciably increased
[4]; all four treatments 5, 20, 50, 250 mg/L, dip once at 30 DBV, at harvest, FIG. 3A
  Shoot length: decreased
[4]; all four treatments 5, 20, 50, 250 mg/L, dip once at 30 DBV, at harvest, FIG. 3B
  Leaf surface area per shoot: decreased
[2]; [5]
  Anthocyanin content per berry skin: tended to be generally increased
  Average per bunch fresh weight: increased
  Dry weight per individual berry: generally increased
  Fresh weight per individual berry: generally increased
  Number of berries per bunch: increased
  Sugar content per berry: (non-significant) increased
  Total polyphenol index (TPI) per berry skin: tended to be generally increased
